According to US20250092030A1, “ENHANCERS OF PARTICULATE GUANYLYL CYCLASE RECEPTOR A” (Mayo Foundation for Medical Education and Research, priority 2023, published 2025):
Values joined by “and” are separate entries in the source; they are usually repeats but may differ in a detail not shown here. Identical values can stand only once.

Molecular target: T1, particulate guanylyl cyclase receptor A (pGC-A) (Homo sapiens, UniProt P16066)
T1 construct: expressed in transfected cells; host or cells: HEK293
T1 sequence (P16066 33-1061): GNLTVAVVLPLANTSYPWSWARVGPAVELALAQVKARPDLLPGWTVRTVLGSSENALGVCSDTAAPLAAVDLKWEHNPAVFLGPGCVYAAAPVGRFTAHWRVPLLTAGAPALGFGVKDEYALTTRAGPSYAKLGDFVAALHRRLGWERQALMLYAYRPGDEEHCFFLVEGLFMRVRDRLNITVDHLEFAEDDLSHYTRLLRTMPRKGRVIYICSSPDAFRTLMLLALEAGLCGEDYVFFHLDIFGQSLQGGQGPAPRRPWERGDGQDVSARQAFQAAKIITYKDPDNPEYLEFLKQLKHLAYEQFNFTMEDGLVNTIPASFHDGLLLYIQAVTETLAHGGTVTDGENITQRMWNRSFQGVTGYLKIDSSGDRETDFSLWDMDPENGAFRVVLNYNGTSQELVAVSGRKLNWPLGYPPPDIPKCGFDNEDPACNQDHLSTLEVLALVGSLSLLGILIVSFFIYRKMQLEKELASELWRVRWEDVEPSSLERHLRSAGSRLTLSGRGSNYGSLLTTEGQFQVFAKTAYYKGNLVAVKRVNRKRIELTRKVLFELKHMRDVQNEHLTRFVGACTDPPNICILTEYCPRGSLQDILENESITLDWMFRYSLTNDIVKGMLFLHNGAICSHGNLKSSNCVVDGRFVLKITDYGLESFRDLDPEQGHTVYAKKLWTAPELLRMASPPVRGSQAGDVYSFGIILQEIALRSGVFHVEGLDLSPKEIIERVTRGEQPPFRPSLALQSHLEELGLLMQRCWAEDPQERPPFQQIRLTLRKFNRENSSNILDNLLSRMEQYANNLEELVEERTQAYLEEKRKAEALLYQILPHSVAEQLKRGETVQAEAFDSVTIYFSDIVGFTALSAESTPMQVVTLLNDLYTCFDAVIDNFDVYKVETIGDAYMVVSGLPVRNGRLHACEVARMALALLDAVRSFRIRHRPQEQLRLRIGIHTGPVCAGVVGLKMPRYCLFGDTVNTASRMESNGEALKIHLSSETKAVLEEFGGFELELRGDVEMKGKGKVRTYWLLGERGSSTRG
T1 sequence (P01160 124-151 partner limits assumed): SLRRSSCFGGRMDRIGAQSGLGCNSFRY
Experiment: cGMP production by HTRF in HEK293 cells overexpressing pGC-A, with ANP
Assay type: cell-based
Settings: for EC50 / Max efficacy: HEK293 cells overexpressing pGC-A; for EC50: test compound plus EC20 concentration of ANP, cGMP by HTRF; for Emax: HEK293, HEK293 cells overexpressing pGC-A, read-out: Max efficacy; for Emax / Max efficacy: cGMP normalized to maximal amount produced by an EC80 concentration of ANP
Source text: Assay: Generally, the assay monitors the production of cGMP, the second messenger generated by pGC-A, by Time-Resolved Florescence (HTRF) in HEK293 cells overexpressing the pGC-A. pGC-A suspension cells were stimulated in the presence of the test compound and an EC20 concentration of ANP. The quantity of cGMP was detected by competitive immunoassay using Eu^3+ cryptate-labeled anti-cGMP and d2-labeled cGMP and normalized to maximal amount produced by an EC80 concentration of ANP. Compound EC50 values were determined in the primary assay, in the presence or absence of ANP, to determine mode of action as positive modulators and tested for selectivity in the same assay platform but in HEK cells overexpressing the particulate guanylyl cyclase B receptor (pGC-B), of which CNP is the endogenous ligand.
Assay details: 20 nL of 10 μM test compound in DMSO was added to columns 5-48 of 1536 well white high base screening plates (Corning, New York, NY) cells using 550 ECHO acoustic dispenser (Labcyte, San Jose, CA). Alpha-atrial natriuretic peptide (ANP) (Phoenix Pharmaceutics) was prepared as stock aliquots at 5 μM in PBS with 0.1% BSA. An approximate […] concentration of ANP ([…]) in assay buffer (HBSS containing 5 mM HEPES and 0.05% BSA) was added to columns 3-48 at a volume of 1 μL. Assay buffer only was added to column 1 and assay buffer containing a saturating concentration of ANP (5 nM) was added to column 2. HEK293 cells overexpressing GC-A were resuspended in assay media (OptimMem media containing 2% Heat-inactivated Fetal bovine serum and L-glutamine) at a density of 6×10^5 cells/mL and 2 μL were plated in screening plates (1200 cells/well) in suspension using a Bioraptr 2. Plates were spun at 1000 rpm for 1 min and incubated for 30 min at room temperature. 1.5 μL d2-labeled cGMP followed by 1.5 μL Eu^3+ cryptate-labeled anti-cGMP cGMP detection kit (CiBio; #62GM2PEC) prepared according to manufacturer's protocol were added to all wells using a Bioraptr 2 and TR-FRET signal was detected on an EnVision detector (PerkinElmer). Wells treated with 0.3% DMSO only serve as blank controls (column 1); wells treated with 0.3% DMSO and 5 nM ANP (columns 2) serve as positive controls and wells treated with 0.3% DMSO and […] ANP (columns 3-4) serve as negative controls.

| Compound | EC50 | Emax | Max efficacy |
| --- | --- | --- | --- |
| CN(C)CCN1CCCC(C(=O)Nc2ncc(-c3ccccc3)s2)C1 (stereo not shown) [compound 169] | > 5000 nM | – | – |
| CN(C)CCN1CCCC(C(=O)Nc2nc3c(F)cc(F)cc3c(=O)[nH]2)C1 (stereo not shown) [compound 182] | > 5000 nM | – | – |
| O=C(Nc1nc2c(F)cc(F)cc2c(=O)[nH]1)C1CCCNC1 (stereo not shown) [compound 183] | > 5000 nM | – | – |
| CN(C)CCN1CCCC(C(=O)Nc2ccc3cccc(F)c3n2)C1 (stereo not shown) [compound 191] | > 5000 nM | – | – |
| O=C(Nc1nc2c(F)cc(F)cc2s1)c1ccccc1 [compound 199] | > 10000 nM | – | – |
| O=C(Nc1nc2c(F)cc(F)cc2s1)c1ccccc1Cl [compound 200] | > 10000 nM | – | – |
| O=C(Nc1nc2c(F)cc(F)cc2s1)c1cccc(Cl)c1 [compound 201] | > 10000 nM | – | – |
| O=C(Nc1nc2c(F)cc(F)cc2s1)c1ccc(Cl)cc1 [compound 202] | > 10000 nM | – | – |
| COc1ccccc1C(=O)Nc1nc2c(F)cc(F)cc2s1 [compound 203] | > 10000 nM | – | – |
| COc1cccc(C(=O)Nc2nc3c(F)cc(F)cc3s2)c1 [compound 204] | > 10000 nM | – | – |
| COc1ccc(C(=O)Nc2nc3c(F)cc(F)cc3s2)cc1 [compound 205] | > 10000 nM | – | – |
| O=C(Nc1nc2c(F)cc(F)cc2s1)c1ccc(-c2ccccc2)cc1 [compound 206] | > 10000 nM | – | – |
| CN(C)CCN[C@@H]1CCC[C@H](C(=O)Nc2nc3c(F)cc(F)cc3s2)C1 [compound 207] | > 5000 nM | – | – |
| N[C@@H]1CCCC(C(=O)Nc2nc3c(F)cc(F)cc3s2)C1 (stereo partly shown) [compound 208] | – | 87% | – |
| N[C@@H]1CCC[C@H](C(=O)Nc2nc3c(F)cc(F)cc3s2)C1 [compound 208] | 700 nM | – | – |
| CN(C)CCN[C@H]1CCC[C@H](C(=O)Nc2nc3c(F)cc(F)cc3s2)C1 [compound 209] | > 5000 nM | – | – |
| CN(C)CCN[C@@H]1CCCCC1C(=O)Nc1nc2c(F)cc(F)cc2s1 (stereo partly shown) [compound 211] | – | 101% | – |
| CN(C)CCN[C@@H]1CCCC[C@@H]1C(=O)Nc1nc2c(F)cc(F)cc2s1 [compound 211] | 1530 nM | – | – |
| CN(C)CCC1CCCC(C(=O)Nc2nc3c(Cl)cc(F)cc3s2)C1 (stereo not shown) [compound 215] | 900 nM | 78% | – |
| CN(C)CCN1CCCC(C(=O)Nc2nc3ccccc3s2)C1 (stereo not shown) [compound 216] | > 10000 nM | – | – |
| CN(C)CCN1CCCC(NC(=O)c2nc3c(F)cc(F)cc3s2)C1 (stereo not shown) [compound 217] | > 10000 nM | – | – |
| CN(C)C1CCN(CC(=O)Nc2nc3c(F)cc(F)cc3s2)CC1 [compound 219] | 1500 nM | 91% | – |
| CN(C)CCC1CCN(c2nc3c(F)cc(F)cc3s2)C(=O)C1 (stereo not shown) [compound 220] | > 5000 nM | – | – |
| O=C1CCC(C(=O)Nc2nc3c(F)cc(F)cc3s2)CN1 (stereo not shown) [compound 222] | 1010 nM | 58% | – |
| CN(C)CCN1CCCC(C(=O)Nc2nc3c(F)cccc3s2)C1 (stereo not shown) [compound 224] | 5800 nM | 105% | – |
| CN(C)CCN1CCCC(C(=O)Nc2nc3c(Cl)cccc3s2)C1 (stereo not shown) [compound 225] | 360 nM | 97% | – |
| CN(C)CCN1CCCC(C(=O)Nc2nc3c(Br)cccc3s2)C1 (stereo not shown) [compound 226] | 160 nM and 900 nM | – | 62% and 87% |

| Compound | EC50 | Emax | Max efficacy |
| --- | --- | --- | --- |
| CN(C)CCN1CCC(C(=O)Nc2nc3c(F)cc(F)cc3s2)CC1 [compound 227] | 1500 nM | 93% | – |
| CN(C)CCN1CCCC(C)(C(=O)Nc2nc3c(F)cc(F)cc3s2)C1 (stereo not shown) [compound 228] | > 5000 nM | – | – |
| CN(C)C(=O)CN1CCCC(C(=O)Nc2nc3c(F)cc(F)cc3s2)C1 (stereo not shown) [compound 229] | 1900 nM | 91% | – |
| CN(C)CC(=O)N1CCCC(C(=O)Nc2nc3c(F)cc(F)cc3s2)C1 (stereo not shown) [compound 230] | 700 nM | 105% | – |
| CN(C)CCCN1CCCC(C(=O)Nc2nc3c(F)cc(F)cc3s2)C1 (stereo not shown) [compound 231] | 900 nM | 98% | – |
| CN(C)CCN1CCCC(C(=O)N(C)c2nc3c(F)cc(F)cc3s2)C1 (stereo not shown) [compound 232] | 2100 nM | 82% | – |
| CN(C)CCN1CCCC(C(=O)Nc2nc3c(F)ccc(F)c3s2)C1 (stereo not shown) [compound 234] | > 5000 nM | – | – |
| CN(C)CCN1CCCC(C(=O)Nc2nc3c(F)cc(Cl)cc3s2)C1 (stereo not shown) [compound 235] | 1400 nM and 2600 nM | 113% | 113, 113% |
| NCCN1CCCC(C(=O)Nc2nc3c(F)cc(F)cc3s2)C1 (stereo not shown) [compound 236] | 700 nM | 85% | – |
| CNCCN1CCCC(C(=O)Nc2nc3c(F)cc(F)cc3s2)C1 (stereo not shown) [compound 237] | – | – | 74% and 51% |
| CCN(CC)CCN1CCCC(C(=O)Nc2nc3c(F)cc(F)cc3s2)C1 (stereo not shown) [compound 238] | 210 nM and 320 nM | 86% | 92% |
| O=C(Nc1nc2c(F)cc(F)cc2s1)C1CCCN(CCN2CCCC2)C1 (stereo not shown) [compound 239] | 220 nM and 300 nM | 87% | 94% and 77% |
| O=C(Nc1nc2c(F)cc(F)cc2s1)C1CCCN(CCNCCO)C1 (stereo not shown) [compound 240] | 700 nM | 105% | – |
| O=C(Nc1nc2c(F)cc(F)cc2s1)C1CCCN(CCN2CCOC2=O)C1 (stereo not shown) [compound 241] | 1600 nM | 93% | – |
| CN(CCO)CCN1CCCC(C(=O)Nc2nc3c(F)cc(F)cc3s2)C1 (stereo not shown) [compound 242] | 700 nM | 105% | – |
| O=C(Nc1nc2c(F)cc(F)cc2s1)C1CCCN(CCN2CCCCC2)C1 (stereo not shown) [compound 243] | 470 nM and 200 nM | 91% | 77% |
| O=C(Nc1nc2c(F)cc(F)cc2s1)C1CCCN(CCN2CCOCC2)C1 (stereo not shown) [compound 244] | 280 nM | 94% | – |
| O=C(Nc1nc2c(F)cc(F)cc2s1)C1CCCN(CCN2CCCC2=O)C1 (stereo not shown) [compound 245] | 4500 nM and 1800 nM | 102% | – |
| O=C(Nc1nc2c(F)cc(F)cc2o1)C1CCCNC1 (stereo not shown) [compound 248] | > 5000 nM | – | – |
| CN(C)CCN1CCCC(C(=O)Nc2nc3c(Cl)c(Cl)ccc3s2)C1 (stereo not shown) [compound 250] | 1400 nM | 60% | – |
| CN(C)CCN1CCCC(C(=O)Nc2nc3c(Cl)cc(Cl)cc3s2)C1 (stereo not shown) [compound 251] | > 5000 nM | – | – |
| CN(C)CCN1CCCC(C(=O)Nc2nc3c(Cl)ccc(Cl)c3s2)C1 (stereo not shown) [compound 252] | > 5000 nM | – | – |
| CN(C)CCN1CCCC(C(=O)Nc2nc3c(Cl)cc(F)cc3s2)C1 (stereo not shown) [compound 253] | 50 nM | 72% | – |
| CN(C)C(=O)N1CCCC(C(=O)Nc2nc3c(F)cc(F)cc3s2)C1 (stereo not shown) [compound 255] | 600 nM | 86% | – |
| O=C(Nc1nc2c(F)cc(F)cc2s1)C1CCCN(CCN2CCCC2C(=O)O)C1 (stereo not shown) [compound 259] | 1300 nM | 74% | – |
| O=C(O)CNCCN1CCCC(C(=O)Nc2nc3c(F)cc(F)cc3s2)C1 (stereo not shown) [compound 260] | > 5000 nM | – | – |
